Laboratory results taken from ChEMBL document CHEMBL3526076, “Species-dependent and receptor-selective action of bilobalide on the function of constitutive androstane receptor and pregnane X receptor” (Drug Metab Dispos, 2012).

How the values were obtained:
[1] = target: T1, Nuclear receptor subfamily 1 group I member 3 (Rattus norvegicus, UniProt Q9QUS1); test: Activation of CAR in rat hepatocytes assessed as increase in CYP2B-mediated benzyloxyresorufin O-dealkylation at 30 uM after 24 hrs by spectrofluorometric analysis relative to phenobarbital; type: ADME, cell-based, Hepatocyte
T1 sequence (Q9QUS1 whole entry): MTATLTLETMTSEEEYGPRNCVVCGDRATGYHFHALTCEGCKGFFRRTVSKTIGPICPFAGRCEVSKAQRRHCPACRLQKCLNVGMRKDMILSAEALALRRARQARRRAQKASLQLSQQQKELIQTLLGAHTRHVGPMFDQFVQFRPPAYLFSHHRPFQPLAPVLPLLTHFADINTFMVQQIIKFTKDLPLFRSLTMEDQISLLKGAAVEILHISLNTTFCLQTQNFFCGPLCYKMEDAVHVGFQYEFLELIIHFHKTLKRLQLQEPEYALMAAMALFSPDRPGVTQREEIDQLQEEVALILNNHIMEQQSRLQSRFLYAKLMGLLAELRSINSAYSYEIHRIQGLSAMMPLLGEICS

[2] = target: T2, Nuclear receptor subfamily 1 group I member 2 (Homo sapiens, UniProt O75469); test: Activation of human PXR expressed in human HepG2 cells coexpressing CYP3A4 at 0.1 to 100 uM after 24 hrs by dual luciferase reporter gene assay; type: ADME, cell-based; conditions: hepg2, 24 h
T2 sequence (O75469 whole entry): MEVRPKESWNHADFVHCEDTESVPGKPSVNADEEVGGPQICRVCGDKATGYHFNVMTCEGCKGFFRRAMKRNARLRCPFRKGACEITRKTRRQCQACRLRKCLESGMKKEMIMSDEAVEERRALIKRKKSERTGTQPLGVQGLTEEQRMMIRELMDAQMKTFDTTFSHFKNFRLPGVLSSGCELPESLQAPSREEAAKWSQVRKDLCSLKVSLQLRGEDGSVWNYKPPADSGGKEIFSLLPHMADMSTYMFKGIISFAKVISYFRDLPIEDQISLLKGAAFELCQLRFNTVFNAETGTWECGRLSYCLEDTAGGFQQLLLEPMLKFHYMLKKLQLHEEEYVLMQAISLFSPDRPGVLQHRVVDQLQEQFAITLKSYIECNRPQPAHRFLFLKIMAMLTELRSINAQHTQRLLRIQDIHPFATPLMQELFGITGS

[3] = system: CAR mRNA; test: Effect on CAR mRNA expression in rat hepatocytes at 10 uM by RT-PCR analysis relative to control; type: ADME, cell-based, Hepatocyte; conditions: read-out: FC
[4] = system: PXR mRNA; test: Effect on PXR mRNA expression in rat hepatocytes at 30 uM by RT-PCR analysis relative to control; type: ADME, cell-based, Hepatocyte; conditions: read-out: FC
[5] = system: PXR mRNA; test: Effect on PXR mRNA expression in human hepatocytes at 10 uM by RT-PCR analysis relative to control; type: ADME, cell-based, Hepatocyte; conditions: read-out: FC
[6] = system: PXR mRNA; test: Effect on PXR mRNA expression in human hepatocytes at 50 uM by RT-PCR analysis relative to control; type: ADME, cell-based, Hepatocyte; conditions: read-out: FC
[7] = target: T1, Nuclear receptor subfamily 1 group I member 3; test: Activation of CAR in rat hepatocytes assessed as upregulation of CYP2B1 mRNA expression at 10 uM after 24 hrs by RT-PCR analysis relative to phenobarbital; type: ADME, cell-based, Hepatocyte
[8] = target: T1, Nuclear receptor subfamily 1 group I member 3; test: Activation of rat CAR expressed in rat hepatocytes coexpressing CYP2B1 at 60 uM after 24 hrs by dual luciferase reporter gene assay relative to phenobarbital; type: ADME, cell-based, Hepatocyte
[9] = target: T2, Nuclear receptor subfamily 1 group I member 2; test: Activation of PXR in human Hu1108 hepatocytes assessed as effect on CYP3A-mediated testosterone 6beta-hydroxylation at 10 to 50 uM after 24 hrs by HPLC analysis; type: ADME, cell-based, Hepatocyte

CC(C)(C)[C@]1(O)C[C@@H]2OC(=O)C[C@@]23C(=O)O[C@@H]2OC(=O)[C@H](O)[C@]213
Activity [1]: 83% | Activity [2]: Not Active | fold induction at 10 µM [3]: 1.1 | fold induction at 30 µM [4]: 0.8 | fold induction at 10 µM [5]: 0.7 | fold induction at 50 µM [6]: 0.4 | Activity [7]: 18% | Activity [8]: 176% | Activity [9]: Not Active
